Test results published in patent EP2017264A1, “Substituted phenyl propargyl compounds, method for their manufacture and their use as herbicides and plant growth regulators” (BAYER CROPSCIENCE AG, priority 2007, dated 2009).

Test: physchem
Description: "LogP" = Verteilungskoeffizient in einem Zweiphasengemisch aus n-Octanol und Wasser.
Die log P-Daten wurden in Übereinstimmung mit der EEC Direktive 79/831, Anlage V.A8 (Annex V.A8) mittels HPLC (High Performance Liquid Chromatography) auf einer Umkehrphase-Säule (reversed-phase column) (C18) mit folgenden Methoden bestimmt: Temperatur: 40°C; Mobile Phase: 0,1 % bzw. 0,06 %ige wässrige Ameisensäure oder 0,1 % wässriger Phosphorsäure und Acetonitril; linearer Gradient von 10% Acetonitril bis 90% bzw. 95 % Acetonitril. Die Kalibrierung wurde ausgeführt mit Hilfe unverzweigter Alkan-2-one (bestehend aus 3 bis 13 bzw.16 Kohlenstoff-Atomen) mit bekannten IogP-Werten (Bestimmung der IogP-Werte über die Retentionszeiten mittels linearer Interpolation zwischen zwei nachfolgenden Alkanonen).

SMILES | chromatographic logP
COc1ccccc1C=NOCC#Cc1ccc(F)c(SC)c1 [Beispiel 1.053] | 4.51
CCSc1cccc(C#CCON=Cc2ccccc2OC)c1 [Beispiel 1.056] | 4.9
COc1cc(F)ccc1C=NOCC#Cc1ccc(F)c(SC)c1 [Beispiel 1.066] | 4.58
CCSc1cccc(C#CCON=Cc2ccc(F)cc2OC)c1 [Beispiel 1.069] | 4.9
Cc1ccc(C#CCON=Cc2ccccc2Oc2ccc(Cl)cc2)cc1[S+](C)[O-] (stereo not drawn) [Beispiel 1.379] | 4.11
COc1ccccc1C=NOCC#Cc1cccc([S+]([O-])C(F)(F)F)c1 (stereo not drawn) [Beispiel 1.380] | 3.88
COc1ccccc1C=NOCC#Cc1ccccc1SC [Beispiel 1.386] | 4.23
COc1ccc(C=NOCC#Cc2cccc(CC#N)c2)c(OC)c1 [Beispiel 1.387] | 3.22
COc1ccc(C=NOCC#Cc2cccc(SC)c2)c(OC)c1 [Beispiel 1.388] | 4.4
COc1ccc(C=NOCC#Cc2cccc([S+](C)[O-])c2)c(OC)c1 (stereo not drawn) [Beispiel 1.389] | 2.42
COc1cccc(OC)c1C=NOCC#Cc1cccc(SC)c1 [Beispiel 1.393] | 3.77
COc1ccccc1C=NOCC#Cc1ccc(C#N)c(SC)c1 [Beispiel 1.394] | 3.94
COc1cc(F)ccc1C=NOCC#Cc1ccc(C#N)c(SC)c1 [Beispiel 1.395] | 3.97
COc1cccc(OC)c1C=NOCC#Cc1cccc([S+](C)[O-])c1 (stereo not drawn) [Beispiel 1.396] | 2.04
COc1cccc(OC)c1C=NOCC#Cc1cccc(CC#N)c1 [Beispiel 1.397] | 2.86
CCSc1cc(C#CCON=Cc2ccccc2OC)ccc1OC [Beispiel 1.398] | 4.45
CCSc1cc(C#CCON=Cc2ccc(F)cc2OC)ccc1OC [Beispiel 1.399] | 4.53
CC[S+]([O-])c1cc(C#CCON=Cc2ccccc2OC)ccc1OC (stereo not drawn) [Beispiel 1.401] | 3.07
CC[S+]([O-])c1cc(C#CCON=Cc2ccc(F)cc2OC)ccc1OC (stereo not drawn) [Beispiel 1.402] | 3.19
CCC(=NOCC#Cc1cccc(OC)c1)c1ccccc1 [Beispiel 1.403] | 4.45
CCC(=NOCC#Cc1cccc(C(F)(F)F)c1)c1ccccc1 [Beispiel 1.404] | 5.13
CCC(=NOCC#Cc1cccc(SC)c1)c1ccccc1 [Beispiel 1.405] | 4.84
CCC(=NOCC#Cc1cccc(CC#N)c1)c1ccccc1 [Beispiel 1.406] | 3.87

SMILES | chromatographic logP
CCC(=NOCC#Cc1cccc(OC)c1)c1ccc(C)cc1 [Beispiel 1.407] | 4.92
CCC(=NOCC#Cc1cccc(C(F)(F)F)c1)c1ccc(C)cc1 [Beispiel 1.408] | 5.53
CCC(=NOCC#Cc1cccc(SC)c1)c1ccc(C)cc1 [Beispiel 1.409] | 5.36
CCC(=NOCC#Cc1cccc(CC#N)c1)c1ccc(C)cc1 [Beispiel 1.410] | 4.18
CCC(=NOCC#Cc1cccc(OC)c1)c1ccc(F)cc1 [Beispiel 1.411] | 4.54
CCC(=NOCC#Cc1cccc(C(F)(F)F)c1)c1ccc(F)cc1 [Beispiel 1.412] | 5.13
CCC(=NOCC#Cc1cccc(SC)c1)c1ccc(F)cc1 [Beispiel 1.413] | 4.97
CCC(=NOCC#Cc1cccc(CC#N)c1)c1ccc(F)cc1 [Beispiel 1.414] | 3.88
CCC(=NOCC#Cc1cccc(OC)c1)c1ccccc1F [Beispiel 1.415] | 4.42
CCC(=NOCC#Cc1cccc(C(F)(F)F)c1)c1ccccc1F [Beispiel 1.416] | 5.03
CCC(=NOCC#Cc1cccc(SC)c1)c1ccccc1F [Beispiel 1.417] | 4.84
CCC(=NOCC#Cc1cccc(CC#N)c1)c1ccccc1F [Beispiel 1.418] | 3.72
CCC(=NOCC#Cc1cccc(CC#N)c1)c1cccc(Cl)c1Cl [Beispiel 1.419] | 4.84
CCC(=NOCC#Cc1cccc([S+](C)[O-])c1)c1ccccc1 (stereo not drawn) [Beispiel 1.420] | 2.93
CCC(=NOCC#Cc1cccc([S+](C)[O-])c1)c1ccc(C)cc1 (stereo not drawn) [Beispiel 1.421] | 3.46
CCC(=NOCC#Cc1cccc([S+](C)[O-])c1)c1cccc(Cl)c1Cl (stereo not drawn) [Beispiel 1.422] | 4.12
CCC(=NOCC#Cc1cccc([S+](C)[O-])c1)c1ccc(F)cc1 (stereo not drawn) [Beispiel 1.423] | 3.14
CCSc1cc(C#CCON=Cc2ccccc2OC)ccc1C [Beispiel 1.424] | 5.33
CCSc1cc(C#CCON=Cc2ccc(F)cc2OC)ccc1C [Beispiel 1.425] | 5.38
CC[S+]([O-])c1cc(C#CCON=Cc2ccccc2OC)ccc1C (stereo not drawn) [Beispiel 1.426] | 3.05
CC[S+]([O-])c1cc(C#CCON=Cc2ccc(F)cc2OC)ccc1C (stereo not drawn) [Beispiel 1.427] | 3.15
COc1ccccc1C=NOCC#Cc1cccc(OC(F)(F)F)c1 [Beispiel 1.428] | 4.72
COc1cc(F)ccc1C=NOCC#Cc1cccc(OC(F)(F)F)c1 [Beispiel 1.429] | 4.77

SMILES | chromatographic logP
COc1ccccc1C=NOCC#Cc1cccc(SC(C)C)c1 [Beispiel 1.430] | 5.24
COc1cc(F)ccc1C=NOCC#Cc1cccc(SC(C)C)c1 [Beispiel 1.431] | 5.26
C=CCSc1cccc(C#CCON=Cc2ccc(F)cc2OC)c1 [Beispiel 1.432] | 5.24
COc1cc(F)ccc1C=NOCC#Cc1ccc(OC)c(SC)c1 [Beispiel 1.433] | 4.32
COc1ccccc1C=NOCC#Cc1ccc(OC)c(SC)c1 [Beispiel 1.434] | 4.24
COc1cc(F)ccc1C=NOCC#Cc1ccc(F)c(SC)c1F [Beispiel 1.435] | 4.54
COc1ccccc1C=NOCC#Cc1ccc(F)c(SC)c1F [Beispiel 1.436] | 4.48
COc1ccccc1C=NOCC#Cc1ccc(F)c([S+](C)[O-])c1F (stereo not drawn) [Beispiel 1.437] | 2.66
COc1cc(F)ccc1C=NOCC#Cc1ccc(F)c([S+](C)[O-])c1F (stereo not drawn) [Beispiel 1.438] | 2.75
COc1ccccc1C=NOCC#Cc1cccc(F)c1F [Beispiel 1.439] | 4.29
COc1ccccc1C=NOCC#Cc1cc(C)c(F)c(SC)c1 [Beispiel 1.440] | 5.01
COc1cc(F)ccc1C=NOCC#Cc1cc(C)c(F)c(SC)c1 [Beispiel 1.441] | 5.05
COc1cc(F)ccc1C=NOCC#Cc1ccccc1SC [Beispiel 1.442] | 4.29
COc1cc(F)ccc1C=NOCC#Cc1cc(C)c(F)c([S+](C)[O-])c1 (stereo not drawn) [Beispiel 1.443] | 3.43
COc1ccccc1C=NOCC#Cc1cc(C)c(F)c([S+](C)[O-])c1 (stereo not drawn) [Beispiel 1.444] | 3.32
COc1ccccc1C=NOCC#Cc1ccccc1[S+](C)[O-] (stereo not drawn) [Beispiel 1.445] | 2.73
COc1cc(F)ccc1C=NOCC#Cc1ccccc1[S+](C)[O-] (stereo not drawn) [Beispiel 1.446] | 2.86
COc1cc(F)ccc1C=NOCC#Cc1ccc(F)c(F)c1SC [Beispiel 1.447] | 4.58
COc1cc(F)ccc1C=NOCC#Cc1ccc(F)c(F)c1[S+](C)[O-] (stereo not drawn) [Beispiel 1.448] | 2.78
COc1cc(F)ccc1C=NOCC#Cc1cc(SC)c(F)c(SC)c1 [Beispiel 1.449] | 5.17
COc1ccccc1C=NOCC#Cc1cc(SC)c(F)c(SC)c1 [Beispiel 1.450] | 5.05
CSc1cccc(C#CC(C)ON=Cc2cccc(C)n2)c1 (stereo not drawn) [Beispiel 3.085] | 3.79
CSc1cccc(C#CCON=C(C)c2cccc(C)n2)c1 [Beispiel 3.091] | 4.18

SMILES | chromatographic logP
CC(=NOCC#Cc1cccc([S+](C)[O-])c1)c1cccc(C)n1 (stereo not drawn) [Beispiel 3.092] | 1.75
CC(=NOCC#Cc1cccc(S(C)(=O)=O)c1)c1cccc(C)n1 [Beispiel 3.093] | 2.4
CC(=NOCC#Cc1cccc(CC#N)c1)c1cccc(C)n1 [Beispiel 3.094] | 2.96
CCC(=NOCC#Cc1cccc(SC)c1)c1cccc(C)n1 [Beispiel 3.095] | 4.77
CCC(=NOCC#Cc1cccc([S+](C)[O-])c1)c1cccc(C)n1 (stereo not drawn) [Beispiel 3.096] | 2.21
CCC(=NOCC#Cc1cccc(S(C)(=O)=O)c1)c1cccc(C)n1 [Beispiel 3.097] | 2.93
CCC(=NOCC#Cc1cccc(CC#N)c1)c1cccc(C)n1 [Beispiel 3.098] | 3.5
CSc1cccc(C#CCON=Cc2cc(C(F)(F)F)c(Cl)cn2)c1 [Beispiel 3.120] | 4.92
C[S+]([O-])c1cccc(C#CCON=Cc2cc(C(F)(F)F)c(Cl)cn2)c1 (stereo not drawn) [Beispiel 3.121] | 2.96
CCOc1nc(C=NOCC#Cc2cccc(SC)c2)ccc1F [Beispiel 3.125] | 4.76
CCOc1nc(C=NOCC#Cc2cccc([S+](C)[O-])c2)ccc1F (stereo not drawn) [Beispiel 3.126] | 2.78
CSc1cccc(C#CCON=Cc2nccnc2SC)c1 [Beispiel 4.078] | 4.18
CSc1nccnc1C=NOCC#Cc1cccc(CC#N)c1 [Beispiel 4.080] | 2.99
COc1nccnc1C=NOCC#Cc1cccc(SC)c1 [Beispiel 4.084] | 3.34
COc1nccnc1C=NOCC#Cc1cccc(CC#N)c1 [Beispiel 4.086] | 2.4
COc1nccnc1C=NOCC#Cc1cccc([S+](C)[O-])c1 (stereo not drawn) [Beispiel 4.090] | 1.57
COc1nccnc1C=NOCC#Cc1cccc(S(C)(=O)=O)c1 [Beispiel 4.091] | 1.99
COc1ncc(Cl)nc1C=NOCC#Cc1cccc(SC)c1 [Beispiel 4.092] | 4.03
COc1ncc(Cl)nc1C=NOCC#Cc1cccc(CC#N)c1 [Beispiel 4.094] | 3.09
COc1ncc(Cl)nc1C=NOCC#Cc1cccc([S+](C)[O-])c1 (stereo not drawn) [Beispiel 4.098] | 2.18
COc1nc(Cl)cnc1C=NOCC#Cc1cccc(SC)c1 [Beispiel 4.100] | 4.03
